Source: patent US12568967B2, “Compositions comprising pyridine carboxylate herbicides with synthetic auxin herbicides or auxin transport inhibitors” (priority 2018, dated 2026)
Where “and” joins values, the source holds several entries; their conditions need not be identical. Identical values can stand only once. Like-named read-outs stand apart in the source and are kept apart here.

What was measured:
Type in all cases: in vivo
[1] = tested on: Hordeum vulgare (winter barley, HORVW); test: Greenhouse postemergence crop phytotoxicity HORVW; settings: c1-3 Compound A 7.5/10/15
[2] = tested on: Brassica napus (winter rape, BRSNW); test: Greenhouse postemergence trial BRSNW; settings: for plant injury at 10 g/ha / plant injury at 15 g/ha: Brassica napus, post-emergence
[3] = tested on: Lolium multiflorum (Italian ryegrass, LOLMU); test: Greenhouse postemergence trial LOLMU; settings: Compound A 10 g/ha
Experimental: (§1) Seeds of the desired test plant species were planted in a 90:10% v/v (volume/volume) mixture of PRO-MIX® BX (Premier Tech Horticulture, Quakertown, PA, USA) and PROFILE® GREENS GRADE™ (Profile Products LLC, Buffalo Grove, IL, USA) planting mixture, which typically has a pH of 5.2 to 6.2 and an organic matter content of at least 50 percent, in plastic pots with a surface area of 103.2 square centimeters (cm^2). […] The plants were grown for 7-36 days (d) in a greenhouse with an approximate 14-hour (h) photo-period which was maintained at about 23° C. during the day and 22° C. during the night. Nutrients and water were added on a regular basis and supplemental lighting was provided with overhead metal halide 1000-Watt lamps as necessary. The plants were employed for testing when they reached the second or third true leaf stage.
(§2) Emulsifiable concentrates of each of each pyridine carboxylate herbicide (Compound A or Compound B) were prepared at 100 grams acid equivalent per liter (g ae/L). The emulsifiable concentrates also included a safener, cloquintocet-mexyl, at 120 grams active ingredient per liter (g ai/L), unless otherwise noted below. An aliquot of each emulsifiable concentrate was placed in a 25 mL glass vial and diluted with an aqueous mixture of 1.25% (v/v) ACTIROB® B esterified rapeseed oil (Bayer Crop Science, Research Triangle Park, NC, USA) or MSO® Concentrate with LECI-TECH® methylated soybean oil (Loveland Products, Loveland, CO, USA) to obtain concentrated stock solutions at the highest application rate for each herbicide, based upon a 12 milliliter (mL) application volume at a rate of 187 liters per hectare (L/ha). The concentrated stock solutions were further diluted with an aqueous mixture of 1.25% v/v ACTIROB® B or MSO® Concentrate with LECI-TECH® to obtain stock solutions at reduced application rates for each herbicide. Spray solutions of the herbicide combinations (Compound A or Compound B plus synthetic auxin herbicide or auxin transport inhibitor) were prepared by adding weighed amounts or aliquots of the synthetic auxin herbicide or auxin transport inhibitor to the stock solutions of Compound A or Compound B to form 12-mL spray solutions in two-way combinations.
(§3) The spray solutions were applied to the plant material with an overhead Mandel track sprayer equipped with 8002E nozzles calibrated to deliver 187 L/ha over an application area of 0.503 square meters (m^2) at a spray height of 18 inches (43 centimeters (cm)) above the average plant canopy. Control plants were sprayed in the same manner with the solvent blank. All pyridine carboxylate herbicide (component a) application rates are given as “g ae/ha” and all synthetic auxin herbicide or auxin transport inhibitor (component b) application rates are given as “g ai/ha.”
(§4) The treated plants and control plants were placed in a greenhouse as described above and watered by sub-irrigation to prevent wash-off of the test compounds. After 20-22 d, the condition of the test plants as compared with that of the control plants was determined visually and scored on a scale of 0 to 100 percent where 0 corresponds to no injury and 100 corresponds to complete kill.

[4] = tested on: Polygonum convolvulus (wild buckwheat, POLCO); test: Greenhouse postemergence trial POLCO
[5] = tested on: Stellaria media (chickweed, STEME); test: Greenhouse postemergence trial STEME; settings: for % visual injury Obs: alone
[6] = tested on: Helianthus annuus (common sunflower, HELAN); test: Greenhouse postemergence trial HELAN; settings: Compound A 10 g/ha
Experimental: as §1, §2, §3, §4

[7] = tested on: Ipomoea hederacea (ivyleaf morningglory, IPOHE); test: Greenhouse postemergence trial IPOHE; settings: Compound A 10 g/ha
Experimental: as §1, §2, §3, §4

[8] = Compound A 10 g/ha, without safener

N#CCOC(=O)c1nc(-c2ccc3cc[nH]c3c2F)c(F)c(N)c1Cl [Compound A, cyanomethyl 4-amino-3-chloro-5-fluoro-6-(7-fluoro-1H-indol-6-yl)pyridine-2-carboxylate]
% visual injury (crop phytotoxicity) ([1]; c4-5 Fluroxypyr-MHE 100/140, c6-8, c9-11 A 7.5/10/15 + Fluroxypyr-MHE 100, 140 g/ha): 0%
% visual injury (crop phytotoxicity) ([1]; c4-6 Clopyralid 30/60/120, c7-9, c10-12, c13-15 A 7.5/10/15 + Clopyralid 30, 60, 120 g/ha): 0%
% visual injury (crop phytotoxicity) ([1]; c4 Aminopyralid 5, c5-7 A 7.5/10/15 + Aminopyralid 5 g/ha): 0%
% visual injury (crop phytotoxicity) ([1]; c4 Halauxifen-methyl 6, c5-7 A 7.5/10/15 + Halauxifen-methyl 6 g/ha): 0%
visual injury, Obs ([2]; BRSNW, Compound A 10 g/ha alone): 65%
visual injury, Obs ([2]; BRSNW, Compound A 15 g/ha alone): 80%
% visual injury (Obs) ([2]; BRSNW, alone 10 g/ha): 68%
plant injury at 10 g/ha ([2]; BRSNW, Compound A 10 g/ha, read-out: % visual injury Obs): 65%
plant injury at 10 g/ha ([2]; BRSNW, Compound A 10 g/ha, read-out: % visual injury, Obs): 68%
plant injury at 15 g/ha ([2]; BRSNW, Compound A 15 g/ha, read-out: % visual injury Obs): 80%
plant injury at 10 g/ha ([2]; BRSNW, alone, 10 g/ha, read-out: % visual injury Obs): 65%
plant injury at 15 g/ha ([2]; BRSNW, alone, 15 g/ha, read-out: % visual injury Obs): 80%
plant injury at 15 g/ha ([2]; BRSNW, applied alone, 15 g/ha, read-out: % visual injury, Obs): 80%
BRSNW Obs (% visual injury) [2, 8]: 65%
LOLMU Obs (% visual injury) [3]: 0%
LOLMU Obs (% visual injury) ([3]; without safener): 0%
% visual injury, Obs ([3]; LOLMU): 0%
POLCO Obs (% visual injury) ([4]; Compound A 10 g/ha): 91% and 70%
POLCO % visual injury Obs ([4]; Compound A 10 g/ha (Table 42)): 91%
POLCO % visual injury Obs ([4]; Compound A 10 g/ha (Table 43)): 91%
POLCO % visual injury Obs ([4]; Compound A 10 g/ha (Table 44)): 91%
POLCO Obs (% visual injury) [4, 8]: 78%
pest or weed control at […] ([4]; Fallopia convolvulus, post-emergence, POLCO, Compound A 7.5 g/ha, read-out: % visual injury Obs): 85%
pest or weed control at 10 g/ha ([4]; Fallopia convolvulus, post-emergence, POLCO, Compound A 10 g/ha, read-out: % visual injury Obs): 90%
pest or weed control at 15 g/ha ([4]; Fallopia convolvulus, post-emergence, POLCO, Compound A 15 g/ha, read-out: % visual injury Obs): 95%
% visual injury Obs ([4]; POLCO, Compound A 10 g/ha): 90%
% visual injury, Obs ([4]; POLCO, Compound A 10 g/ha): 91% and 70% and 78%
visual injury, Obs ([4]; POLCO, Compound A 10 g/ha alone): 90%
visual injury, Obs ([4]; POLCO, Compound A 15 g/ha alone): 95%
% visual injury (Obs) ([4]; POLCO, alone 10 g/ha): 86% and 96% and 70%
% visual injury Obs ([4]; POLCO, alone 10 g/ha): 90%
% visual injury Obs ([4]; POLCO, alone, 15 g/ha): 95%
% visual injury, Obs ([4]; POLCO, applied alone, 10 g/ha): 90% and 43%
% visual injury, Obs ([4]; POLCO, applied alone, 15 g/ha): 95%
STEME Obs (% visual injury) [5, 8]: 88%
% visual injury, Obs ([5]; STEME, Compound A 10 g/ha): 88%
visual injury, Obs ([5]; STEME, Compound A 10 g/ha alone): 70%
visual injury, Obs ([5]; STEME, Compound A 15 g/ha alone): 100%
% visual injury Obs ([5]; STEME, 10 g/ha): 70%
% visual injury Obs ([5]; STEME, 15 g/ha): 100%
% visual injury, Obs ([5]; STEME, applied alone, 10 g/ha): 70%
% visual injury, Obs ([5]; STEME, applied alone, 15 g/ha): 100%
pest or weed control at […] ([5]; Stellaria media, post-emergence, STEME, Compound A 7.5 g/ha, read-out: % visual injury Obs): 65%
pest or weed control at 10 g/ha ([5]; Stellaria media, post-emergence, STEME, Compound A 10 g/ha, read-out: % visual injury Obs): 70%
pest or weed control at 15 g/ha ([5]; Stellaria media, post-emergence, STEME, Compound A 15 g/ha, read-out: % visual injury Obs): 100%
HELAN Obs (% visual injury) ([6]; without safener): 100%
% visual injury, Obs ([6]; HELAN): 100%
IPOHE Obs (% visual injury) ([7]; without safener): 15%
% visual injury, Obs ([7]; IPOHE): 15%
